Laboratory results taken from the NIST ThermoML archive (doi:10.1016/j.jct.2017.11.011).
Numbers after ± are expanded uncertainties.

Assays:
[1] = relative permittivity at various frequencies (dimensionless); settings: 100 kPa, Liquid, Frequency=1 MHz, Parallel plate capacitor
[2] = relative permittivity at various frequencies (dimensionless); xn = mol fraction of the nth substance listed; settings: 100 kPa, Liquid, Frequency=1 MHz, Parallel plate capacitor
[3] = 101.33 kPa, Liquid, Vibrating tube method

CN(C)C=O [dimethylformamide]
[1]
Settings	relative permittivity
293.15 K	38.334 ± 1
298.15 K	37.44 ± 1
303.15 K	36.58 ± 1

Nc1ccccc1 [aniline] + CN(C)C=O
relative permittivity, [2]
Settings	293.15 K	298.15 K	303.15 K
x2 = 0	7.117 ± 0.47	6.984 ± 0.47	6.856 ± 0.47
x2 = 0.0533	8.91 ± 0.53	8.729 ± 0.52	8.557 ± 0.52
x2 = 0.1046	10.653 ± 0.57	10.426 ± 0.56	10.2 ± 0.56
x2 = 0.1562	12.414 ± 0.61	12.144 ± 0.6	11.876 ± 0.6
x2 = 0.2033	14.004 ± 0.65	13.689 ± 0.64	13.383 ± 0.63
x2 = 0.3015	17.269 ± 0.71	16.874 ± 0.7	16.485 ± 0.7
x2 = 0.4071	20.625 ± 0.77	20.146 ± 0.77	19.678 ± 0.76
x2 = 0.5013	23.428 ± 0.82	22.895 ± 0.81	22.371 ± 0.8
x2 = 0.5999	26.184 ± 0.87	25.601 ± 0.86	25.026 ± 0.85
x2 = 0.6989	28.955 ± 0.91	28.31 ± 0.9	27.687 ± 0.89
x2 = 0.7931	31.604 ± 0.95	30.92 ± 0.94	30.246 ± 0.93
x2 = 0.8431	33.12 ± 0.97	32.402 ± 0.96	31.69 ± 0.95
x2 = 0.8982	34.833 ± 0.99	34.071 ± 0.98	33.315 ± 0.97
x2 = 0.9459	36.439 ± 1	35.62 ± 1	34.821 ± 0.99

CN(C)C=O [dimethylformamide] + Nc1ccccc1
[2], x1 = 1
Settings	relative permittivity
293.15 K	38.334 ± 1
298.15 K	37.44 ± 1
303.15 K	36.58 ± 1

Nc1ccccc1 [aniline]
Settings	mass density, 293.15 K [kg/m3]	mass density, 298.1 K [kg/m3]	mass density, 303.15 K [kg/m3]	relative permittivity, 293.15 K	relative permittivity, 298.15 K	relative permittivity, 303.15 K
[1]	–	–	–	7.117 ± 0.47	6.984 ± 0.47	6.856 ± 0.47
[3]	1021.79 ± 2.5	1017.52 ± 2.4	1013.19 ± 2.4	–	–	–
